Counter-ions that a name gives are not always drawn.
Tested on: not given
Assay: not given
Conditions: not given

| Compound | melting point [°C] |
| --- | --- |
| Cc1ccccc1-c1cc(F)cc2c1OC(CN)O2 (centres unmarked) (as salt: hydrochloride) [Compound I-80, 1-[4-(2-Methyl-phenyl)-6-fluoro-1,3-benzodioxol-2-yl]methanamine] | 197 to 200 |
| NCC1Oc2cc(F)cc(-c3cc(Cl)ccc3Cl)c2O1 (centres unmarked) (as salt: hydrochloride) [Compound I-81, 1-[4-(2,5-Dichloro-phenyl)-6-fluoro-1,3-benzodioxol-2-yl]methanamine] | 204 to 205 |
| NCC1Oc2cc(F)cc(-c3ccccc3C(F)(F)F)c2O1 (centres unmarked) (as salt: hydrochloride) [Compound I-82, 1-[4-(2-Trifluoromethyl-phenyl)-6-fluoro-1,3-benzodioxol-2-yl]methanamine] | 178 to 180 |
| NCC1Oc2cc(F)cc(-c3ccccc3F)c2O1 (centres unmarked) (as salt: hydrochloride) [Compound I-83, 1-[4-(2-Fluoro-phenyl)-6-fluoro-1,3-benzodioxol-2-yl]methanamine] | 234 to 235 |
| NCC1Oc2cc(F)cc(-c3ccccc3Cl)c2O1 (centres unmarked) (as salt: hydrochloride) [Compound I-84, 1-[4-(2-Chloro-phenyl)-6-fluoro-1,3-benzodioxol-2-yl]methanamine] | 192 to 194 |
| NC[C@H]1Oc2cc(F)cc(-c3c(Cl)cccc3Cl)c2O1 (as salt: hydrochloride) [Compound I-85, 1-[(2S)-4-(2,6-dichlorophenyl)-6-fluoro-1,3-benzodioxol-2-yl]methanamine] | 224 to 225 |
| NC[C@@H]1Oc2cc(F)cc(-c3c(Cl)cccc3Cl)c2O1 (as salt: hydrochloride) [Compound I-86, 1-[(2R)-4-(2,6-dichlorophenyl)-6-fluoro-1,3-benzodioxol-2-yl]methanamine] | 206 to 208 |
| CNCC1Oc2cc(F)cc(-c3ccccc3Cl)c2O1 (centres unmarked) (as salt: hydrochloride) [Compound I-87, 1-[4-(2-Chlorophenyl)-6-fluoro-1,3-benzodioxol-2-yl]-N-methylmethanamine] | 132 to 134 |
| CCNCC1Oc2cc(F)cc(-c3ccccc3Cl)c2O1 (centres unmarked) (as salt: hydrochloride) [Compound I-88, N-{[4-(2-Chlorophenyl)-6-fluoro-1,3-benzodioxol-2-yl]methyl}ethanamine] | 182 to 183 |
| CN(C)CC1Oc2cc(F)cc(-c3ccccc3Cl)c2O1 (centres unmarked) (as salt: hydrochloride) [Compound I-89, 1-[4-(2-chlorophenyl)-6-fluoro-1,3-benzodioxol-2-yl]-N,N-dimethylmethanamine] | 211 to 212 |
| NCC1Oc2cc(Cl)cc(-c3ccccc3Cl)c2O1 (centres unmarked) (as salt: hydrochloride) [Compound I-90, [6-Chloro-4-(2-chloro-phenyl)-benzo[1,3]dioxol-2-yl]-methylamine] | > 250 |
| Cc1ccccc1-c1cc(Cl)cc2c1OC(CN)O2 (centres unmarked) (as salt: hydrochloride) [Compound I-91, [6-Chloro-4-(2-methyl-phenyl)-benzo[1,3]dioxol-2-yl]-methylamine] | > 250 |
| COc1ccccc1-c1cc(Cl)cc2c1OC(CN)O2 (centres unmarked) (as salt: hydrochloride) [Compound I-92, [6-Chloro-4-(2-methoxy-phenyl)-benzo[1,3]dioxol-2-yl]-methylamine] | 245 to 246 |
| COc1ccc(Cl)cc1-c1cc(Cl)cc2c1OC(CN)O2 (centres unmarked) (as salt: hydrochloride) [Compound I-94, [6-Chloro-4-(2-methoxy-5-chloro-phenyl)-benzo[1,3]dioxol-2-yl]-methylamine] | 228 to 230 |
| COc1cccc(-c2cc(Cl)cc3c2OC(CN)O3)c1OC (centres unmarked) (as salt: hydrochloride) [Compound I-95, [6-Chloro-4-(2,3-dimethoxy-phenyl)-benzo[1,3]dioxol-2-yl]-methylamine] | 228 to 230 |
| NCC1Oc2cc(Cl)cc(-c3ccc(Cl)cc3Cl)c2O1 (centres unmarked) (as salt: hydrochloride) [Compound I-96, [6-Chloro-4-(2,4-dichloro-phenyl)-benzo[1,3]dioxol-2-yl]-methylamine] | > 250 |
| Cc1cc(Cl)ccc1-c1cc(Cl)cc2c1OC(CN)O2 (centres unmarked) (as salt: hydrochloride) [Compound I-97, [6-Chloro-4-(4-chloro-2-methyl-phenyl)-benzo[1,3]dioxol-2-yl]-methylamine] | > 250 |
| NCC1Oc2cc(Cl)cc(-c3cc(Cl)ccc3Cl)c2O1 (centres unmarked) (as salt: hydrochloride) [Compound I-98, [6-Chloro-4-(2,5-dichloro-phenyl)-benzo[1,3]dioxol-2-yl]-methylamine] | 246 to 248 |
| NCC1Oc2cc(Cl)cc(-c3cc(F)ccc3F)c2O1 (centres unmarked) (as salt: hydrochloride) [Compound I-99, [6-Chloro-4-(2,5-difluoro-phenyl)-benzo[1,3]dioxol-2-yl]-methylamine] | > 250 |
| COc1ccc(OC)c(-c2cc(Cl)cc3c2OC(CN)O3)c1 (centres unmarked) (as salt: hydrochloride) [Compound I-100, [6-Chloro-4-(2,5-dimethoxy-phenyl)-benzo[1,3]dioxol-2-yl]-methylamine] | 225 to 227 |
| NCC1Oc2cc(Cl)cc(-c3ccccc3-c3ccccc3)c2O1 (centres unmarked) (as salt: hydrochloride) [Compound I-101, [6-Chloro-4-biphenyl-benzo[1,3]dioxol-2-yl]-methylamine] | 196 to 198 |
| NC[C@H]1COc2cccc(-c3c(Cl)cccc3Cl)c2O1 (as salt: salt) [Compound I-46, {[(2S)-8-(2,6-Dichlorophenyl)-2,3-dihydro-1,4-benzodioxin-2-yl]methyl}amine] | 165 to 167 |
| NC[C@H]1COc2cc(F)cc(-c3c(Cl)cccc3Cl)c2O1 (as salt: salt) [Compound I-47, {[(2S)-8-(2,6-Dichlorophenyl)-6-fluoro-2,3-dihydro-1,4-benzodioxin-2-yl]methyl}amine] | 165 to 167 |
| NCC1Oc2cc(Cl)cc(-c3ccccc3F)c2O1 (centres unmarked) (as salt: salt) [Compound I-93, [6-Chloro-4-(2-fluoro-phenyl)-benzo[1,3]dioxol-2-yl]-methylamine] | > 250 |

Target: T1, human 5-hydroxytryptamine-2C (h5-HT2C) receptor (Homo sapiens, UniProt P28335)
T1 construct: expressed in transfected cells; host or cells: CHO (Chinese Hamster Ovary) cells; membranes
T1 sequence (P28335 33-458): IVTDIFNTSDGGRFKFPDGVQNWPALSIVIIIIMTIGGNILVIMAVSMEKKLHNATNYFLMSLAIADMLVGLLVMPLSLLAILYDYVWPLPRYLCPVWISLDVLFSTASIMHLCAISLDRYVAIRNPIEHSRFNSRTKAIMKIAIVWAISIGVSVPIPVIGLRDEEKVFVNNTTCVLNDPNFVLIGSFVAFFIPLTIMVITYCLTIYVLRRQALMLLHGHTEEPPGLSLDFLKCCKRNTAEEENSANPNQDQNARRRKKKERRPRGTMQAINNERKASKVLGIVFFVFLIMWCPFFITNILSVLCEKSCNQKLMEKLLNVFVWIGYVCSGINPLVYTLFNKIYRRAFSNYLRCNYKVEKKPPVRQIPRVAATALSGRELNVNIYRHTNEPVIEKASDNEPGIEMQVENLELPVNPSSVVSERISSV
Assay: 5-HT2C binding: [125I]DOI displacement in membranes of transfected CHO cells
Conditions: read-out: 5-HT2C Binding Ki avg

| Compound | Ki [nM] |
| --- | --- |
| C[C@]1(CN)COc2cccc(-c3ccccc3)c2O1 [Compound I-48, {[(2S)-2-Methyl-8-phenyl-2,3-dihydro-1,4-benzodioxin-2-yl]methyl}amine] | > 200 |
| C[C@]1(CN)COc2cccc(-c3cccc(Cl)c3)c2O1 [Compound I-50, {[(2S)-8-(3-Chlorophenyl)-2-methyl-2,3-dihydro-1,4-benzodioxin-2-yl]methyl}amine] | > 200 |
| C[C@]1(CN)COc2cccc(-c3ccc(Cl)cc3)c2O1 [Compound I-51, {[(2S)-8-(4-Chlorophenyl)-2-methyl-2,3-dihydro-1,4-benzodioxin-2-yl]methyl}amine] | > 200 |
| COc1ccccc1-c1cccc2c1O[C@@](C)(CN)CO2 [Compound I-52, {[(2S)-8-(2-Methoxyphenyl)-2-methyl-2,3-dihydro-1,4-benzodioxin-2-yl]methyl}amine] | > 200 |
| C[C@]1(CN)COc2cccc(-c3ccsc3)c2O1 [Compound I-53, {[(2S)-2-Methyl-8-thien-3-yl-2,3-dihydro-1,4-benzodioxin-2-yl]methyl}amine] | > 200 |

Source: patent publication US20060241172A1, “Benzodioxane and benzodioxolane derivatives and uses thereof” (Wyeth, priority 2005, published 2006)
